Results from ChEMBL document CHEMBL4396882, “2-Aminothiazole-4-carboxamides Enhance Readthrough of Premature Termination Codons by Aminoglycosides” (2019).
Activity calls are given as the source filed them. The calls are words filed in the database; no cut-off is given here.

Assays:
HDQ-P1 [1] = assay: Induction of P53 expression in human HDQ-P1 cells assessed as enrichment ratio at 3 uM incubated for 72 hrs in presence of 50 uM G418 by Hoechst 33323 staining based fluorescence assay; assay type: functional
HDQ-P1 [2] = assay: Induction of P53 expression in human HDQ-P1 cells assessed as enrichment ratio at 10 uM incubated for 72 hrs in presence of 50 uM G418 by Hoechst 33323 staining based fluorescence assay; assay type: functional
HDQ-P1 [3] = assay: Induction of P53 expression in human HDQ-P1 cells assessed as enrichment ratio at 3 uM incubated for 72 hrs in presence of 50 uM G418 by automated electrophoresis western analysis; assay type: functional
HDQ-P1 [4] = assay: Induction of P53 expression in human HDQ-P1 cells assessed as enrichment ratio at 10 uM incubated for 72 hrs in presence of 50 uM G418 by automated electrophoresis western analysis; assay type: functional
HDQ-P1 [5] = assay: Induction of P53 expression in human HDQ-P1 cells assessed as enrichment ratio at 10 uM incubated for 72 hrs in presence of 25 uM G418 by automated electrophoresis western analysis; assay type: functional
HDQ-P1 [6] = assay: Induction of P53 expression in human HDQ-P1 cells assessed as enrichment ratio at 10 uM incubated for 72 hrs by automated electrophoresis western analysis; assay type: functional
HDQ-P1 [7] = assay: Induction of P53 expression in human HDQ-P1 cells assessed as enrichment ratio at 30 uM incubated for 72 hrs by automated electrophoresis western analysis; assay type: functional
HDQ-P1 [8] = assay: Induction of P53 expression in human HDQ-P1 cells assessed as enrichment ratio at 30 uM incubated for 72 hrs in presence of 25 uM G418 by automated electrophoresis western analysis; assay type: functional
HDQ-P1 [9] = assay: Effect on human HDQ-P1 cells assessed as increase in TP53 R213X mRNA level at 10 uM incubated for 72 hrs by RT-qPCR analysis; assay type: functional, cell-based
HDQ-P1 [10] = assay: Effect on human HDQ-P1 cells assessed as increase in TP53 R213X mRNA level at 10 uM incubated for 72 hrs in presence of G418 by RT-qPCR analysis; assay type: functional, cell-based
HDQ-P1 [11] = assay: Cytotoxicity in human HDQ-P1 cells assessed as reduction in cell viability incubated for 72 hrs in presence of G418 by MTT assay; assay type: functional, cell-based
HDQ-P1 [12] = assay: Cytotoxicity in human HDQ-P1 cells assessed as reduction in cell viability at 3 uM incubated for 72 hrs by MTT assay relative to control; assay type: functional
HDQ-P1 [13] = assay: Ratio of enrichment ratio of test compound at 10 uM to enrichment ratio of CDX5-1 at 30 uM in human HDQ-P1 cells by automated electrophoresis western analysis; assay type: functional
HDQ-P1 [14] = assay: Cytotoxicity in human HDQ-P1 cells assessed as reduction in cell viability at 1 uM incubated for 72 hrs by MTT assay; assay type: functional, cell-based
HDQ-P1 [15] = assay: Induction of P53 expression in human HDQ-P1 cells assessed as enrichment ratio at 3 uM incubated for 72 hrs in presence of gentamicin by automated electrophoresis western analysis; assay type: functional

Structure (SMILES)	Ratio (HDQ-P1 [1])	Ratio (HDQ-P1 [2])	Ratio (HDQ-P1 [3])	Ratio (HDQ-P1 [4])	other results
O=C(Nc1ccc2[nH]ncc2c1)c1csc(Nc2ccc3[nH]ccc3c2)n1	1.4	8			
O=C(Nc1ccc2c(c1)OCCO2)c1csc(Nc2ccc3ncccc3c2)n1	1.6	8.7			
COc1ccc(NC(=O)c2csc(Nc3cccc4[nH]ncc34)n2)cn1	1.4	27.2			
O=C(Nc1ccc2[nH]ccc2c1)c1csc(Nc2ccc3[nH]ncc3c2)n1	1.3	23			
COc1ccc(NC(=O)c2csc(Nc3cccc4[nH]ncc34)n2)cc1	1.6	5.9			
O=C(Nc1ccc2c(c1)OCCO2)c1csc(Nc2ccc(=O)[nH]c2)n1	3.8	7	2.4	2.3	
CSc1ccc(NC(=O)c2cnc(Nc3ccc4[nH]ncc4c3)s2)cc1	1.6	4.7			
O=C(Nc1ccc2c(c1)OCO2)c1cnc(Nc2ccc3[nH]ncc3c2)s1	1.2	19.2			
COc1ccc(NC(=O)c2cnc(Nc3ccc4[nH]ncc4c3)s2)cn1	2.2	7.8			
O=C(Nc1ccc2c(c1)OCO2)c1csc(Nc2ccc3[nH]ncc3c2)n1	1.2	5.4			
O=C1NC(=O)c2cc(NCc3c(Cl)cccc3Cl)ccc21					Ratio (HDQ-P1 [5]): 2.8; Ratio (HDQ-P1 [6]): 0.1; Ratio (HDQ-P1 [7]): 0.1; Ratio (HDQ-P1 [8]): 8.3
O=C(Nc1ccc(F)cc1)c1csc(Nc2cccc3[nH]ncc23)n1	13.1	23.3	13.1	23.3	Activity (HDQ-P1 [9]): inactive; Ratio (HDQ-P1 [5]): 25.7; Activity (HDQ-P1 [10]): inactive; Ratio (HDQ-P1 [6]): 0.3; Activity (HDQ-P1 [11]): Active; Activity (HDQ-P1 [12]): 42%; Ratio (HDQ-P1 [13]): 3; Activity (HDQ-P1 [14]): inactive
CSc1ccc(NC(=O)c2csc(Nc3cccc4[nH]ncc34)n2)cc1	8.2	20.1	5.3	7.2	Activity (HDQ-P1 [9]): inactive; Ratio (HDQ-P1 [5]): 8.8; Activity (HDQ-P1 [10]): inactive; Ratio (HDQ-P1 [6]): 0.1; Activity (HDQ-P1 [11]): Active; Activity (HDQ-P1 [12]): 60%; Ratio (HDQ-P1 [13]): 3; Activity (HDQ-P1 [14]): inactive; Ratio (HDQ-P1 [15]): 10.8
O=C(Nc1ccccc1)c1csc(Nc2ccc3[nH]ncc3c2)n1	2.5	11.2			
O=C(Nc1ccc2c(c1)OCO2)c1csc(Nc2ccc3ncccc3c2)n1	3.5	10.7	3.6	10.7	
COc1cc(NC(=O)c2csc(Nc3cccc4[nH]ncc34)n2)cc(OC)c1OC	5.3	7.2	8.2	20.1	
O=C(Nc1ccc2c(c1)OCCO2)c1csc(Nc2cccc3[nH]ncc23)n1	3.4	15.8	3.4	15.8	
